Source: US8129398B2 (priority 2008, dated 2012)

The compounds below were run against T1, HIV-integrase (Human immunodeficiency virus type 1 group M subtype B, UniProt P12497) (assay: HIV-Integrase Inhibition Activity (SPA bead integration assay with P33 labeled target DNA)). Settings: recombinant integrase, class symbols; read-out: in vitro activity.
T1 construct: Recombinant integrase (0.26 ng) was incubated with the beads
Type: biochemical
Outline: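 Biotinylated substrate DNA on streptavidin SPA beads loaded with recombinant integrase (90 min, 37° C), washed, then inhibitor plus 0.1 fmol P33-labeled target DNA added. Reaction stopped with 10 mM EDTA; integration measured as CPM by scintillation, giving IC50 ranks.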

| Structure (SMILES) | IC50 [nM] |
| --- | --- |
| CO[C@H]1C[C@@H](C(=O)NC23CCC(CC2)Cn2c3nc(C(=O)NCc3ccc(F)c(C)c3)c(O)c2=O)N(C(=O)c2cc(C)n(C)n2)C1 [Example 295, 7,10-Ethanopyrimido[1,2-a]azepine-2-carboxamide, 10-[[[(2S,4S)-1-[(1,5-dimethyl-1H-pyrazol-3-yl)carbonyl]-4-methoxy-2-pyrrolidinyl]carbonyl]amino]-N-[(4-fluoro-3-methylphenyl)methyl]-4,6,7,8,9,10-hexahydro-3-hydroxy-4-oxo-] | < 10 |
| CO[C@H]1C[C@@H](C(=O)NC23CCC(CC2)Cn2c3nc(C(=O)NCc3ccc(F)c(C)c3)c(O)c2=O)N(C(=O)c2cccn2C)C1 [Example 279, 7,10-Ethanopyrimido[1,2-a]azepine-2-carboxamide, N-[(4-fluoro-3-methylphenyl)methyl]-4,6,7,8,9,10-hexahydro-3-hydroxy-10-[[[(2S,4S)-4-methoxy-1-[(1-methyl-1H-pyrrol-2-yl)carbonyl]-2-pyrrolidinyl]carbonyl]amino]-4-oxo-] | < 10 |
| Cc1cc(CNC(=O)c2nc3n(c(=O)c2O)CC2CCC3(NC(=O)C(=O)N(C)CC(F)(F)F)CC2)ccc1F [Example 51, N′-(2-((4-Fluoro-3-methylbenzyl)carbamoyl)-3-hydroxy-4-oxo-6,7,8,9-tetrahydro-7,10-ethanopyrimido[1,2-a]azepin-10(4H)-yl)-N-methyl-N-(2,2,2-trifluoroethyl)ethanediamide] | < 10 |
| Cc1cccc(S(=O)(=O)NC23CCC(CC2)Cn2c3nc(C(=O)NCc3ccc(F)cc3)c(O)c2=O)c1 [Example 391] | < 10 |
| CN(C)C(=O)C(=O)NC12CCC(CC1)Cn1c2nc(C(=O)NCc2ccc(F)c(Br)c2)c(O)c1=O [Example 115, N′-(2-((3-Bromo-4-fluorobenzyl)carbamoyl)-3-hydroxy-4-oxo-6,7,8,9-tetrahydro-7,10-ethanopyrimido[1,2-a]azepin-10(4H)-yl)-N,N-dimethylethanediamide] | < 10 |
| CCN(C)C(=O)C(=O)NC12CCC(CCn3c1nc(C(=O)NCc1ccc(F)cc1)c(O)c3=O)C2 (stereo not drawn) [Example 204] | < 10 |
| CC(=O)N[C@@H]1CCN(C(=O)C(=O)NC23CCC(CC2)Cn2c3nc(C(=O)NCc3ccc(F)cc3)c(O)c2=O)C1 [Example 86, 10-((((3R)-3-(Dcetylamino)-1-pyrrolidinyl)(oxo)acetyl)amino)-N-(4-fluorobenzyl)-3-hydroxy-4-oxo-4,6,7,8,9,10-hexahydro-7,10-ethanopyrimido[1,2-a]azepine-2-carboxamide] | < 10 |
| CCOC(=O)[C@@H]1CCCN1C(=O)C(=O)NC12CCC(CC1)Cn1c2nc(C(=O)NCc2ccc(F)cc2)c(O)c1=O [Example 92, Ethyl 1-(((2-((4-fluorobenzyl)carbamoyl)-3-hydroxy-4-oxo-6,7,8,9-tetrahydro-7,11-ethanopyrimido[1,2-a]azepin-10(4H)-yl)amino) (oxo)aceyl)-L-prolinate] | < 10 |
| Cn1cc(C(=O)NC23CCC(CC2)Cn2c3nc(C(=O)NCc3ccc(F)cc3)c(O)c2=O)nn1 [Example 248, 7,10-Ethanopyrimido[1,2-a]azepine-2-carboxamide, N-[(4-fluorophenyl)methyl]-4,6,7,8,9,10-hexahydro-3-hydroxy-10-[[(1-methyl-1H-1,2,3-triazol-4-yl)carbonyl]amino]-4-oxo-] | < 10 |
| CN(C(=O)OCc1ccccc1)C1c2nc(C(=O)NCc3ccc(F)cc3)c(O)c(=O)n2CC2CCC1C2 (stereo not drawn) [Example 8] | < 10 |
| O=C(N[C@]12CC[C@H](CCn3c1nc(C(=O)NCc1ccc(F)cc1)c(O)c3=O)C2)C(=O)N1CC[C@@H](F)C1 [Example 417, 8,1,1-Methano-4H-pyrimido[1,2-a]azocine-2-carboxamide, N-[(4-fluorophenyl)methyl]-11-[[2-[(3R)-3-fluoro-1-pyrrolidinyl]-1,2-dioxoethyl]amino]-6,7,8,9,10,11-hexahydro-3-hydroxy-4-oxo-, (8R,11S)—] | < 10 |
| CC(=O)Nc1ccc(C(=O)NC23CCC(CC2)Cn2c3nc(C(=O)NCc3ccc(F)cc3)c(O)c2=O)cn1 [Example 320, 7,10-Ethanopyrimido[1,2-a]azepine-2-carboxamide, 10-[[[6-(acetylamino)-3-pyridinyl]carbonyl]amino]-N-[(4-fluorophenyl)methyl]-4,6,7,8,9,10-hexahydro-3-hydroxy-4-oxo-] | < 10 |
| CN(C)C(=O)C(=O)NC12CCC(CC1)Cn1c2nc(C(=O)NCCOc2ccccc2)c(O)c1=O [Example 355] | < 10 |
| CN(C)C(=O)C(=O)NC12CCC(CC1)Cn1c2nc(C(=O)NCc2ccccc2C(F)(F)F)c(O)c1=O [Example 377] | 10 to 100 |
| CCCOC(=O)N1CCCC1C(=O)NC12CCC(CC1)Cn1c2nc(C(=O)NCc2ccc(F)cc2)c(O)c1=O (stereo not drawn) [Example 398] | < 10 |
| CN1CCC[C@@H]1C(=O)NC12CCC(CC1)Cn1c2nc(C(=O)NCc2ccc(F)cc2)c(O)c1=O [Example 257, 7,10-Ethanopyrimido[1,2-a]azepine-2-carboxamide, N-[(4-fluorophenyl)methyl]-4,6,7,8,9,10-hexahydro-3-hydroxy-10-[[[(2R)-1-methyl-2-pyrrolidinyl]carbonyl]amino]-4-oxo-] | 10 to 100 |
| COCCN(C)C(=O)C(=O)NC12CCC(CC1)Cn1c2nc(C(=O)NCc2ccc(F)c(Cl)c2)c(O)c1=O [Example 135, N′-(2-((3-Chloro-4-fluorobenzyl)carbamoyl)-3-hydroxy-4-oxo-6,7,8,9-tetrahydro-7,11-ethanopyrimido[1,2-a]azepin-10(4H)-yl)-N-(2-methoxyethyl)-N-methylethanediamide] | < 10 |
| CN(C)C(=O)C(=O)NC12CCC(CC1)Cn1c2nc(C(=O)NCc2cc(Cl)cc(Cl)c2)c(O)c1=O [Example 383] | < 10 |
| Cc1cnc(CNC(=O)c2nc3n(c(=O)c2O)CC2CCC3(NC(=O)C(=O)N(C)C)CC2)cn1 [Example 389] | 10 to 100 |
| O=C(NC12CCC(CC1)Cn1c2nc(C(=O)NCc2ccc(F)cc2)c(O)c1=O)C(=O)N1CCC(F)(F)CC1 [Example 85, 10-(((4,4-Difluoro-1-piperidinyl) (oxo)acetyl)amino)-N-(4-fluorobenzyl)-3-hydroxy-4-oxo-4,6,7,8,9,10-hexahydro-7,10-ethanopyrimido[1,2-a]azepine-2-carboxamide] | < 10 |
| CN(C)C(=O)C(=O)NC12CCC(CC1)Cn1c2nc(C(=O)NCc2ccc(Cl)c(Cl)c2)c(O)c1=O [Example 372] | < 10 |
| CN(C)C(=O)C(=O)NC12CCC(CC1)Cn1c2nc(C(=O)NCCCc2ccccc2)c(O)c1=O [Example 349] | < 10 |
| Cc1noc(C)c1S(=O)(=O)N1CCN(C(=O)C(=O)NC23CCC(CC2)Cn2c3nc(C(=O)NCc3ccc(F)cc3)c(O)c2=O)CC1 [Example 146, 10-(((4-((3,5-Dimethyl-4-isoxazolyl)sulfonyl)-1-piperazinyl)(oxo)acetyl)amino)-N-(4-fluorobenzyl)-3-hydroxy-4-oxo-4,6,7,8,9,10-hexahydro-7,10-ethanopyrimido[1,2-a]azepine-2-carboxamide] | < 10 |
| Cc1c(CN(C)C(=O)C(=O)NC23CCC(CC2)Cn2c3nc(C(=O)NCc3ccc(F)cc3)c(O)c2=O)cnn1C [Example 95, N-((1,5-Dimethyl-1H-pyrazol-4-yl)methyl)-N′-(2-((4-fluorobenzyl)carbamoyl)-3-hydroxy-4-oxo-6,7,8,9-tetrahydro-7,10-ethanopyrimido[1,2-a]azepin-10(4H)-yl)-N-methylethanediamide] | < 10 |
| COC(=O)NC12CCC(CC1)Cn1c2nc(C(=O)NCc2ccc(F)cc2)c(O)c1=O [Example 25, Methyl (2-((4-fluorobenzyl)carbamoyl)-3-hydroxy-4-oxo-6,7,8,9-tetrahydro-7,10-ethanopyrimido[1,2-a]azepin-10(4H)-yl)carbamate] | < 10 |
| O=C(NC12CCC(CCn3c1nc(C(=O)NCc1ccc(F)c(Cl)c1)c(O)c3=O)C2)C(=O)N1CC[C@@H](F)C1 (stereo partly drawn) [Example 215, 8,11-Methano-4H-pyrimido[1,2-a]azocine-2-carboxamide, N-[(3-chloro-4-fluorophenyl)methyl]-11-[[2-[(3R)-3-fluoro-1-pyrrolidinyl]-1,2-dioxoethyl]amino]-6,7,8,9,10,11-hexahydro-3-hydroxy-4-oxo-] | < 10 |
| O=C(NC12CCC(CC1)Cn1c2nc(C(=O)NCc2ccc(F)cc2)c(O)c1=O)C(=O)N1CC[C@@H](F)C1 [Example 104, N-(4-Fluorobenzyl)-10-((((3R)-3-fluoro-1-pyrrolidinyl)(oxo)acetyl)amino)-3-hydroxy-4-oxo-4,6,7,8,9,10-hexahydro-7,10-ethanopyrimido[1,2-a]azepine-2-carboxamide] | < 10 |
| O=C(N[C@@]12CC[C@@H](CCn3c1nc(C(=O)NCc1ccc(F)cc1)c(O)c3=O)C2)C(=O)N1CC[C@@H](F)C1 [Example 418, 8,1,1-Methano-4H-pyrimido[1,2-a]azocine-2-carboxamide, N-[(4-fluorophenyl)methyl]-11-[[2-[(3R)-3-fluoro-1-pyrrolidinyl]-1,2-dioxoethyl]amino]-6,7,8,9,10,11-hexahydro-3-hydroxy-4-oxo-, (8S,11R)—] | < 10 |
| CN(C)C(=O)C(=O)N(CCO)C12CCC(CC1)Cn1c2nc(C(=O)NCc2ccc(F)cc2)c(O)c1=O [Example 175, N-(2-((4-Fluorobenzyl)carbamoyl)-3-hydroxy-4-oxo-6,7,8,9-tetrahydro-7,10-ethanopyrimido[1,2-a]azepin-10(4H)-yl)-N-(2-hydroxyethyl)-N′,N′-dimethylethanediamide] | < 10 |
| Cc1cc(F)ccc1CNC(=O)c1nc2n(c(=O)c1O)CC1CCC2(NC(=O)C(=O)N(C)C)CC1 [Example 120, N′-(2-((4-Fluoro-2-methylbenzyl)carbamoyl)-3-hydroxy-4-oxo-6,7,8,9-tetrahydro-7,10-ethanopyrimido[1,2-a]azepin-10(4H)-yl)-N,N-dimethylethanediamide] | < 10 |
